According to patent publication US20250154219A1, “PEPTIDE ANALOGS” (Adepthera LLC, priority 2017, published 2025):

What was measured:
Format in all cases: cell-based
CLR/RAMP1 receptor [1] = target: T1, CLR/RAMP1 receptor (Homo sapiens, UniProt O60894+Q16602); experiment: CLR/RAMP1 cAMP assay, antagonist mode (CGRP-stimulated); details: for CLR/RAMP1 Max Activity % of positive control (antagonist): antagonist mode; for receptor selectivity of antagonists, in words: CLR/RAMP1 versus CLR/RAMP2
Description: A cell line carrying the recombinant CLR/RAMP1, CLR/RAMP2, or a CLR/RAMP3 receptor was employed in the assay. […] The CLR/RAMP1 CAMP, CLR/RAMP2 arrestin, and CLR/RAMP3 CAMP assays (DiscoveRx, Fremont, Calif.) were used.
For the analysis of antagonistic activity, synthetic analogs were pre-incubated with the cells before adding the reference ligand at its EC80. […] For the determination of antagonistic activity, cells were pre-incubated with sample followed by agonist challenge at the EC80 concentration. […] After appropriate compound incubation, assay signal was generated through incubation with 20 μL cAMP XS+ED/CL lysis cocktail for one hour followed by incubation with 20 μL cAMP XS+EA reagent for three hours at room temperature. Microplates were read following signal generation with a PerkinElmer Envision™ instrument for chemiluminescent signal detection.
For the antagonistic activity assay, percentage inhibition is calculated using the following formula: % Inhibition=100%×(1−(mean RLU of test sample−mean RLU of vehicle control)/(mean RLU of EC80 control−mean RLU of vehicle control)).

CLR/RAMP2 receptor [2] = target: T2, CLR/RAMP2 receptor (Homo sapiens, UniProt O60895+Q16602); experiment: CLR/RAMP2 arrestin assay, antagonist mode (ADM-stimulated)
T2 sequence (Q16602 23-461): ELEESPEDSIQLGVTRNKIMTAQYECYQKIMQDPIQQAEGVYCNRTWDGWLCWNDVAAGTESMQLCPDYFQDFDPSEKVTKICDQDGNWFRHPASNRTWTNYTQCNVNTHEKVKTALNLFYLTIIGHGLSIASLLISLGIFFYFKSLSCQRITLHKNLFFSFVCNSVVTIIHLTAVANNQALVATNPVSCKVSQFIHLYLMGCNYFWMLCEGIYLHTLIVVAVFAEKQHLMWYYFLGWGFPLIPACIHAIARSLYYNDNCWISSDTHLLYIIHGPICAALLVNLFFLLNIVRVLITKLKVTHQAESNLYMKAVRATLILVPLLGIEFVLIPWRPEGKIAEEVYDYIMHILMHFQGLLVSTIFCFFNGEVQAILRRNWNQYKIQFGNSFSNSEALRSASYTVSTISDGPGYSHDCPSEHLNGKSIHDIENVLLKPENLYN
T2 sequence (O60895 43-175): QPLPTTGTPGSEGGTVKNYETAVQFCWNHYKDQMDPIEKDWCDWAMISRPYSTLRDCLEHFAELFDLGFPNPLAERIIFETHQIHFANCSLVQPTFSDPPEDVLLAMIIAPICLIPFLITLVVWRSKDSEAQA
Description: A cell line carrying the recombinant CLR/RAMP1, CLR/RAMP2, or a CLR/RAMP3 receptor was employed in the assay. Peptide agonist activities were tested, in duplicate, at 10 different concentrations, starting with 1.0 μM and serially diluted 3-fold, in DMSO. […] The CLR/RAMP1 CAMP, CLR/RAMP2 arrestin, and CLR/RAMP3 CAMP assays (DiscoveRx, Fremont, Calif.) were used.
For the analysis of antagonistic activity, synthetic analogs were pre-incubated with the cells before adding the reference ligand at its EC80. […] For antagonistic activity determination, cells were pre-incubated with antagonist followed by agonist challenge at the EC80 concentration. […] Then, 5 μL of 6× EC80 agonist in assay buffer was added to the cells and incubated at 37 C or room temperature for 90 or 180 minutes.
The microplates were read following signal generation with a PerkinElmer Envision™ instrument for chemiluminescent signal detection.
% Activity=100%×(mean RLU of test sample−mean RLU of vehicle control)/(mean MAX control ligand−mean RLU of vehicle control). For antagonistic activity assays, percentage inhibition was calculated using the following formula: % Inhibition=100%×(1−(mean RLU of test sample−mean RLU of vehicle control)/(mean RLU of EC80 control−mean RLU of vehicle control)).

[3] = target: neurotensin receptor 1 (NTSR1) (Homo sapiens, UniProt P30989); experiment: NTSR1 calcium flux assay
Chain of neurotensin receptor 1 (NTSR1) (P30989 whole entry): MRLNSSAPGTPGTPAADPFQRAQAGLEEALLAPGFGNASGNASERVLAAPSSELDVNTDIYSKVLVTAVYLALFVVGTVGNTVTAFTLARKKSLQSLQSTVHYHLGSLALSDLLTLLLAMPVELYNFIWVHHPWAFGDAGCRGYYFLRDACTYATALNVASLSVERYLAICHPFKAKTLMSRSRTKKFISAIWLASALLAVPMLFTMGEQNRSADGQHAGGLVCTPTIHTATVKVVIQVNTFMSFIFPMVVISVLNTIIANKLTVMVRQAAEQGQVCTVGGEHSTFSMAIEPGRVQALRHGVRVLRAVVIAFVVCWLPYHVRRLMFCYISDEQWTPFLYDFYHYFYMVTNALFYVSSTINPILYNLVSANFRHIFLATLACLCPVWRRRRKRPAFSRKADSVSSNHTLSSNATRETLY
Description: The agonistic activities toward SSTR2, NTSR1, and AGTRL1 were assayed with an SSTR2 arrestin assay, an NTSR1 calcium flux assay, and an AGTRL1 CAMP assay (Discoverx Inc.), respectively. The antagonistic activities toward BDKRB1 and AGTR1 were assayed with a BDKRB1 calcium flux assay and an AGTR1 calcium flux assay (Discoverx Inc.), respectively.
For the analysis of calcium flux, cell lines were expanded from freezer stocks and seeded in a total volume of 20 μL into black-walled, clear-bottom, Poly-D-lysine coated 384-well microplates and incubated at 37 C for the appropriate time prior to testing. […] Compound agonist activity was measured on a FLIPR Tetra (MDS), and calcium mobilization was monitored for 2 minutes and 10 μL 4× sample in HBSS/20 mM Hepes was added to the cells 5 seconds into the assay.
The compound activity was analyzed using a CBIS data analysis suite (ChemInnovation, CA), and percentage activity is calculated using the following formula: % Activity=100%×(mean RFU of test sample−mean RFU of vehicle control)/(mean MAX RFU control ligand−mean RFU of vehicle control). For antagonist assays, percentage inhibition is calculated using the following formula: % Inhibition=100%×(1−(mean RFU of test sample−mean RFU of vehicle control)/(mean RFU of EC80 control−mean RFU of vehicle control)).

CLR/RAMP2 receptor [4] = target: T2, CLR/RAMP2 receptor; experiment: CLR/RAMP2 arrestin receptor-activation assay (agonist mode); details: for CLR/RAMP2 Max Activity % of positive control: agonist mode, positive control ADM; for EC50: CHO-K1 cells stably expressing CLR/RAMP2, arrestin assay; for receptor selectivity of agonists, in words: CLR/RAMP2 versus CLR/RAMP1;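 as to all read-outs here: agonist dose-response in recombinant cell lines stably expressing each receptor complex, duplicate wells over 10 threefold dilutions from a top concentration of 1.0 µM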
Description: (§1) Using a receptor activation assay, the dose-dependent stimulatory response of peptide agonists on a CLR/RAMP1 receptor, a CLR/RAMP2, or a CLR/RAMP3 receptor complex was determined. A cell line carrying the recombinant CLR/RAMP1, CLR/RAMP2, or a CLR/RAMP3 receptor was employed in the assay. Peptide agonist activities were tested, in duplicate, at 10 different concentrations, starting with 1.0 μM and serially diluted 3-fold, in DMSO. […] The CLR/RAMP1 CAMP, CLR/RAMP2 arrestin, and CLR/RAMP3 CAMP assays (DiscoveRx, Fremont, Calif.) were used.
(§2) The pharmacology of superagonistic activity of synthetic analogs was studied in cells that stably express CLR/RAMP1 (1321N1 cells), CLR/RAMP2 (CHO-K1 cells), or CLR/RAMP3 (CHO-K1 cells) receptors.
For the Arrestin assays, PathHunter cell lines (Discoverx Inc.) were expanded from freezer stocks, and seeded in a total volume of 20 μL into white walled, 384-well microplates and incubated at 37 C for the appropriate time prior to testing. For agonist determination, cells were incubated with sample to induce response. […] The microplates were read following signal generation with a PerkinElmer Envision™ instrument for chemiluminescent signal detection.
The compound activity was analyzed using a CBIS data analysis suite (ChemInnovation, CA). For agonist mode assays, percentage activity was calculated using the following formula:
% Activity=100%×(mean RLU of test sample−mean RLU of vehicle control)/(mean MAX control ligand−mean RLU of vehicle control).

CLR/RAMP1 receptor [5] = target: T1, CLR/RAMP1 receptor; experiment: CLR/RAMP1 cAMP receptor-activation assay (agonist mode); details: for CLR/RAMP1 Max Activity % of positive control: agonist mode, positive control β-CGRP;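 as to all read-outs here: Dose–response over 10 threefold dilutions from 1.0 µM, run in duplicate, luminescent cAMP detection (RLU), activity scaled between vehicle control (0%) and maximal control (100%)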
Description: as §1, §2
(§3) For the analysis of Gs-coupled CAMP production, cAMP Hunter cell lines were expanded from freezer stocks, and cells were seeded in a total volume of 20 μL into white walled, 384-well microplates and incubated at 37 C for the appropriate time prior to testing. The CAMP modulation was determined using the DiscoverX HitHunter CAMP XS+ assay. For agonistic activity determination, cells were incubated with sample to induce response. Media was aspirated from cells and replaced with 15 μL 2:1 HBSS/10 mM Hepes: CAMP XS+Ab reagent. […] For Gs-coupled agonistic assays, percentage activity is calculated using the following formula: % Activity=100%×(mean RLU of test sample−mean RLU of vehicle control)/(mean RLU of MAX control−mean RLU of vehicle control).

CLR/RAMP3 receptor = CLR/RAMP3 receptor (Homo sapiens, UniProt O60896+Q16602); experiment: CLR/RAMP3 cAMP receptor-activation assay (agonist mode); details: for EC50: CHO-K1 cells stably expressing CLR/RAMP3, cAMP assay; for CLR/RAMP3 Max Activity % of positive control: agonist mode
Chain of CLR/RAMP3 receptor (Q16602 23-461): as the sequence (Q16602 23-461) above
Chain of CLR/RAMP3 receptor (O60896 24-148): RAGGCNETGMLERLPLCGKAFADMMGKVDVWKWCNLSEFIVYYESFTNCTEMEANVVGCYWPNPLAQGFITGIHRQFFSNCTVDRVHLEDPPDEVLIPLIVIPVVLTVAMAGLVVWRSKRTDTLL
Description: as §1, §2, §3

T1 sequence (Q16602 23-461): as the sequence (Q16602 23-461) above
T1 sequence (O60894 27-148): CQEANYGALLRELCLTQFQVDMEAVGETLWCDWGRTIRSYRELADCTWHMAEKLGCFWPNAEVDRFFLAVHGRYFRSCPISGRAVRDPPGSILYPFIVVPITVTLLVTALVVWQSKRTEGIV

Substance	CLR/RAMP1 Max Activity % of positive control (antagonist) (CLR/RAMP1 receptor [1])	CLR/RAMP2 Max Activity % of positive control (antagonist) (CLR/RAMP2 receptor [2])	CLR/RAMP2 Max Activity % of positive control (CLR/RAMP2 receptor [4])	CLR/RAMP1 Max Activity % of positive control (CLR/RAMP1 receptor [5])	further results
Pyr(glu)-LYENKPRRPYIL-miniPEG-K(Pal)VQKLSAPVDPSSPHSY-NH2 [SEQ ID NO: 224]	99 % of positive control	100 % of positive control	–	–	NTSR1 Max Activity [3]: 57 % of positive controls
Ace-YNWNSFGLRF-miniPEG-K(PAL)VQKLAHQIYQFTDKDVAPRSKISPQGY-NH2 [SEQ ID NO: 148]	100 % of positive control	97 % of positive control	–	–	receptor selectivity of antagonists, in words (CLR/RAMP1 receptor [1]): pan-specific
KKPYIL [[Lys 8,9] Neurotensin, reference compound]	–	–	–	–	NTSR1 Max Activity [3]: 100 % of positive controls
Pal-KVQKLNFVPTNVGSKAF-NH2 [SEQ ID NO: 142]	100 % of positive control	80 % of positive control	–	–	–
olcegepant [BIBN4096, reference compound]	105 % of positive control	0 % of positive control	0 % of positive control	105 % of positive control	–
miniPEG-K(PAL)GCRFGTCTVQKLAHQIYQFTDKDKDNSAPVDPSSPHSY-NH2 [SEQ ID NO: 28]	–	–	143 % of positive control	54 % of positive control	EC50 (CLR/RAMP2 receptor [4]): 0.5 nM; EC50 (CLR/RAMP3 receptor): 0.06 nM; CLR/RAMP3 Max Activity % of positive control (CLR/RAMP3 receptor): 117 % of positive control
Ace-RPKPQQFFGLM-miniPEG-K(PAL)GCRFGTCTVQKLAHQIYQFTDKDSAPVDPSSPHSY-NH2 [SEQ ID NO: 147]	–	–	90 % of positive control	109 % of positive control	–
Ace-YGGFLRRIRPKLK-miniPEG-K(Pal)VQKLSAPVDPSSPHSY-NH2 [SEQ ID NO: 146]	102 % of positive control	98 % of positive control	–	–	receptor selectivity of antagonists, in words (CLR/RAMP1 receptor [1]): CLR/RAMP1-selective
Ace-Y(D-Ala)GF(D-Leu)-miniPEG-K(Pal)VQKLSAPVDPSSPHSY-NH2 [SEQ ID NO: 145]	99 % of positive control	100 % of positive control	–	–	receptor selectivity of antagonists, in words (CLR/RAMP1 receptor [1]): CLR/RAMP1-selective
Ace-PEG12-PEG12-K([19-carboxy-nonadecanoyl]-isoGlu-PEG3)GCRFGTCTVQKLAHQIYQFTDKDKDNVAPRSKISPQGY-NH2 [SEQ ID NO: 150]	–	–	60 % of positive control	94 % of positive control	–
miniPEG-K(PAL)VQKLSAPVDPSSPHSY-NH2 [SEQ ID NO: 140]	100 % of positive control	90 % of positive control	–	–	receptor selectivity of antagonists, in words (CLR/RAMP1 receptor [1]): CLR/RAMP1-selective
PEG5000-K[PAL]VQKLAHQIYQFTDKDSAPVDPSSPHSY-NH2 [SEQ ID NO: 192]	101 % of positive control	104 % of positive control	–	–	–
Ace-NFVPTNVGPFAF-NH2 [SEQ ID NO: 144]	98 % of positive control	0 % of positive control	–	–	antagonistic activity toward CLR/RAMP1 and/or CLR/RAMP2, in words (CLR/RAMP1 receptor [1]): minimal antagonizing activities
miniPEG-K(PAL)GCRFGTCTVQKLAHQIYQFTDKDKDNVAPVDPSSPHSY-NH2 [SEQ ID NO: 50]	–	–	87 % of positive control	65 % of positive control	–
miniPEG-K(PAL)CRFGTCTVQKLAHQIYQFTDKDKDNSAPVDPSSPHSY-NH2 [SEQ ID NO: 43]	–	–	30 % of positive control	39 % of positive control	–
Ace-PEG3-K([19-carboxy-nonadecanoyl]-PEG3-isoGlu)GCRFGTCTVQKLAHQIYQFTDKDKDNVAPRSKISPQGY-NH2 [SEQ ID NO: 156]	–	–	91 % of positive control	88 % of positive control	–
miniPEG-K(PAL)GCRFGTCTVQKLAHQIYQFTDKDKDNVAPRSKSSPHSY-NH2 [SEQ ID NO: 61]	–	–	92 % of positive control	70 % of positive control	–
PEG20,000-K[PAL]VQKLAHQIYQFTDKDSAPVDPSSPHSY-NH2 [SEQ ID NO: 190]	104 % of positive control	51 % of positive control	–	–	–

Substance	CLR/RAMP1 Max Activity % of positive control (antagonist) (CLR/RAMP1 receptor [1])	CLR/RAMP2 Max Activity % of positive control (antagonist) (CLR/RAMP2 receptor [2])	CLR/RAMP2 Max Activity % of positive control (CLR/RAMP2 receptor [4])	CLR/RAMP1 Max Activity % of positive control (CLR/RAMP1 receptor [5])	further results
miniPEG-K(PAL)GCRFGTCTVQKLAHQIYQFTDKDVAPR(D-Ser)KISPQGY-NH2 [SEQ ID NO: 213]	–	–	107 % of positive control	115 % of positive control	–
miniPEG-K(PAL)GCRFGTCTVQKLAHQIYQFTDKDKDSAPVDPSSPHSY-NH2 [SEQ ID NO: 46]	–	–	104 % of positive control	60 % of positive control	–
miniPEG-K(PAL)GCRFGTCTVQKLAHQIYQFTDKDSAPVDPSSPHSY-NH2 [SEQ ID NO: 48]	–	–	77 % of positive control	78 % of positive control	EC50 (CLR/RAMP2 receptor [4]): 0.2 nM; EC50 (CLR/RAMP3 receptor): 0.07 nM; CLR/RAMP3 Max Activity % of positive control (CLR/RAMP3 receptor): 141 % of positive control; EC50 (CLR/RAMP1 receptor [5]; 1321N1 cells stably expressing CLR/RAMP1, cAMP assay): 0.3 nM
miniPEG-K(PAL)GCRFGTCTVQKLAHQIYQFTDKDVAPRSKISPQGY-NH2 [SEQ ID NO: 101]	–	–	74 % of positive control	56 % of positive control	receptor selectivity of agonists, in words (CLR/RAMP2 receptor [4]): CLR/RAMP2-selective; CLR/RAMP3 Max Activity % of positive control (CLR/RAMP3 receptor): 129 % of positive control
Pal-KVQNLSAPVDPSSPHSY-NH2 [SEQ ID NO: 141]	43 % of positive control	14 % of positive control	–	–	antagonistic activity toward CLR/RAMP1 and/or CLR/RAMP2, in words (CLR/RAMP1 receptor [1]): minimal antagonizing activities
miniPEG-K(PAL)TKKTLRTGCRFGTCTVQKLAHQIYQFTDKDKDNVAPRSKISPQGY-NH2 [SEQ ID NO: 70]	–	–	68 % of positive control	69 % of positive control	–
Ace-PEG3-K(Hexadecanoyl-isoGlu)GCRFGTCTVQKLAHQIYQFTDKDKDNVAPRSKISPQGY-NH2 [SEQ ID NO: 151]	–	–	134 % of positive control	85 % of positive control	–
miniPEG-TK(Pal)KTLRTGCRFGTCTVQKLAHQIYQFTDKDKDNVAPVDPSSPHSY-NH2 [SEQ ID NO: 42]	–	–	76 % of positive control	56 % of positive control	–
miniPEG-K(PAL)GCRFGTCTVQKLAHQIYQFTDKDKDNVAPRSKISPQGY-NH2 [SEQ ID NO: 69]	–	–	147 % of positive control	70 % of positive control	CLR/RAMP3 Max Activity % of positive control (CLR/RAMP3 receptor): 127 % of positive control
Ace-PEG3-K([19-carboxy-nonadecanoyl]-isoGlu-Peg3-Peg3)GCRFGTCTVQKLAHQIYQFTDKDKDNVAPRSKISPQGY-NH2 [SEQ ID NO: 157]	–	–	95 % of positive control	100 % of positive control	–
miniPEG-K(PAL)GCRFGTC(D-Thr)VQKLAHQIYQFTDKDVAPRSKISPQGY-NH2 [SEQ ID NO: 210]	–	–	47 % of positive control	77 % of positive control	receptor selectivity of agonists, in words (CLR/RAMP2 receptor [4]): CLR/RAMP2-selective
Ace-KRPPGFSPFR-miniPEG-K(Pal)VQKLAHQIYQFTDKDVAPRSKISPQGY-NH2 [SEQ ID NO: 149]	101 % of positive control	99 % of positive control	–	–	receptor selectivity of antagonists, in words (CLR/RAMP1 receptor [1]): pan-specific
Pyr(glu)-LYENKPRRPYIL-miniPEG-K(PAL)GCRFGTCTVQKLAHQIYQFTDKDVAPRSKISPQGY-NH2 [SEQ ID NO: 223]	–	–	70 % of positive control	102 % of positive control	–
miniPEG-K(PAL)GCRFGTCTVQKLAHQIYQFTDKDKSAPVDPSSPHSY-NH2 [SEQ ID NO: 47]	–	–	64 % of positive control	85 % of positive control	–
AcePEG3--K([17-carboxy-heptadecanoyl]-isoGlu-Peg3-Peg3)GCRFGTCTVQKLAHQIYQFTDKDKDNVAPRSKISPQGY-NH2 [SEQ ID NO: 158]	–	–	113 % of positive control	95 % of positive control	–
PEG2000-K[PAL]VQKLAHQIYQFTDKDSAPVDPSSPHSY-NH2 [SEQ ID NO: 191]	98 % of positive control	101 % of positive control	–	–	–
Ace-PEG3-K(Hexadecanoyl-isoGlu-PEG3)GCRFGTCTVQKLAHQIYQFTDKDKDNVAPRSKISPQGY-NH2 [SEQ ID NO: 152]	–	–	132 % of positive control	80 % of positive control	–
